Data on 42 sequences can be found in the OligoGym collection.

Several values for one entry are separate records, joined by “and”; a condition that tells them apart may be missing. Identical values can stand only once. After the bases stand the sugars from the 5' end (letter, count) and the backbone: PS all phosphorothioate, else s phosphorothioate and o phosphodiester by linkage. Methylation of C is not given here. e = 2'-O-(2-methoxyethyl) (MOE); k = constrained ethyl (cEt); d = 2'-deoxy (DNA)

The series deals with SOD1. Particulars: ASO.

For the sequence “GTCTGGCAAAATACAGG (sugars e2 k2 d9 k2 e2, PS)”, the target mRNA inhibition (HepG2, 5 µM) stood at 38%.
On the same count and under the same terms, to “GTGATTTAAGTCTGGCA (sugars e2 k2 d9 k2 e2, PS)” belongs 69%; to “GTGCCATACAGGGTTTT (sugars e2 k2 d8 k2 e3, PS)”, 20%; to “GTGCGGCCAATGATGCAATG (sugars e5 d10 e5, PS)”, 12%.
For the sequence “GTTTAATGTTTATCAGG (sugars e2 k2 d9 k2 e2, linkages s1 o3 s9 o1 s2)”, the target mRNA inhibition amounted to 25% (A431, 0.12 µM); 69% (A431, 0.6 µM); 89% (A431, 3 µM); 95% (A431, 15 µM); 76% (HepG2, 0.222 µM); 90% (HepG2, 0.667 µM). In addition, the target mRNA inhibition by setting is: (HepG2, 2 µM) 94%; (HepG2, 6 µM) 93%.
As for “GTTTAATGTTTATCAGGA (sugars e5 d8 e5, linkages s1 o3 s9 o2 s2)”, the target mRNA inhibition is, setting by setting: (A431, 0.12 µM) 15%; (A431, 0.6 µM) 51%; (A431, 3 µM) 68%; (A431, 15 µM) 84%; (HepG2, 0.222 µM) 45%; (HepG2, 0.667 µM) 73%. The target mRNA inhibition runs as follows: (HepG2, 2 µM) 78%; (HepG2, 6 µM) 87%.
Consider “GTTTAATGTTTATCAGGATA (sugars e5 d10 e5, PS)”, for which the target mRNA inhibition is, setting by setting: (HepG2, 0.1875 µM) 15%; (HepG2, 0.75 µM) 37%; (HepG2, 3 µM) 70%; (HepG2, 5 µM) 71%; (HepG2, 12 µM) 88%.
Sequence “GTTTATTGGGCGATCCC (sugars e2 k2 d9 k2 e2, PS)” gave a target mRNA inhibition (HepG2, 4 µM) of 68%.
Under “HepG2, 3 µM”, “GTTTTATAAAACTATAC (sugars e3 k2 d7 k2 e3, PS)” gave a target mRNA inhibition of 22%.
Same read-out and setting: to “TAAAGTGAGGACCTGCA (sugars e3 k2 d7 k2 e3, PS)” belongs 19%.
Regarding “TAATAAGTGCCATACAG (sugars e2 k2 d9 k2 e2, PS)”, for the setting “HepG2, 5 µM”, the target mRNA inhibition was determined as 30%.
With “TAATACCCATCTGTGAT (sugars e3 k2 d7 k2 e3, PS)”, under “HepG2, 3 µM”, the target mRNA inhibition was determined as 4%.
For the setting “HepG2, 3 µM”, “TAATGCTTCCCCACACC (sugars e3 k2 d7 k2 e3, PS)” returned a target mRNA inhibition of 52%.
Turning to “TAATGTTTATCAGGAT (sugars ekddddddddekekee, linkages s1 o1 s8 o3 s2)”, the target mRNA inhibition is, setting by setting: (A431, 0.12 µM) 1%; (A431, 0.6 µM) 9%; (A431, 3 µM) 22%; (A431, 15 µM) 46%.
“TAATGTTTATCAGGATA (sugars e2 k2 d9 k2 e2, PS)”: the target mRNA inhibition reads like this: (HepG2, 0.1875 µM) 28%; (HepG2, 0.75 µM) 66%; (HepG2, 3 µM) 91%; (HepG2, 4 µM) 85% and 82%; (HepG2, 12 µM) 93% and 98%.
As to “TACACCACAAGCCAAAC (sugars e2 k2 d9 k2 e2, PS)”, the target mRNA inhibition (HepG2, 4 µM) was 63%.
Under “HepG2, 3 µM”, “TACAGCTAGCAGGATAA (sugars e3 k2 d7 k2 e3, PS)” displayed a target mRNA inhibition of 40%.
Regarding “TACAGGTACTTTAAAGC (sugars e2 k2 d9 k2 e2, PS)”, the target mRNA inhibition (HepG2, 5 µM) is 26%.
“TACAGGTCATTGAAACA (sugars e2 k2 d9 k2 e2, PS)” had a target mRNA inhibition (HepG2, 5 µM) of 38%.
For the setting “HepG2, 3 µM”, “TACATCCAAGGGAATGT (sugars e3 k2 d7 k2 e3, PS)” registered a target mRNA inhibition of 30%.
The sequence “TACCCATCTGTGATTTA (sugars e2 k2 d9 k2 e2, PS)” displayed a target mRNA inhibition (HepG2, 5 µM) of 45%.
“TAGCAGGATAACAGATG (sugars e3 k2 d7 k2 e3, PS)”: the target mRNA inhibition (HepG2, 3 µM) is 34%.
As for “TAGCCTCATAATAAGTG (sugars e2 k2 d8 k2 e3, PS)”, the target mRNA inhibition (HepG2, 5 µM) was 11%.
As for “TATTGGGCGATCCCAAT (sugars e3 k2 d7 k2 e3, PS)”, the target mRNA inhibition (HepG2, 3 µM) turned out to be 3%.
Under “HepG2, 5 µM”, “TCACACAATTACACTTT (sugars e2 k2 d8 k2 e3, PS)” yielded a target mRNA inhibition of 28%.
“TCAGACTACATCCAAGG (sugars e3 k2 d7 k2 e3, PS)”: the target mRNA inhibition is 19% (HepG2, 0.1875 µM); 51% (HepG2, 0.75 µM); 57% and 74% (HepG2, 3 µM); 85% (HepG2, 12 µM).
As to “TCAGCACGCACACGGCCTTC (sugars e5 d10 e5, PS)”, the target mRNA inhibition by setting is: (HepG2, 0.1875 µM) 6%; (HepG2, 0.75 µM) 12%; (HepG2, 3 µM) 51%; (HepG2, 4 µM) 52%; (HepG2, 12 µM) 88%.
In the case of “TCAGGATACATTTCTACAGC (sugars e5 d10 e5, linkages s1 o3 s11 o3 s1)”, the target mRNA inhibition reads like this: (A431, 0.12 µM) 9%; (A431, 0.6 µM) 8%; (A431, 3 µM) 21%; (A431, 15 µM) 49%; (HepG2, 0.222 µM) 25%; (HepG2, 0.667 µM) 50%. The target mRNA inhibition reads like this: (HepG2, 2 µM) 92%; (HepG2, 6 µM) 73%.
As for “TCATGAACATGGAATCCATG (sugars e5 d10 e5, PS)”, the target mRNA inhibition (HepG2, 5 µM) was 24% and 19%.
Consider “TCCCCACACCTTCACT (sugars ekddddddddekekee, linkages s1 o1 s8 o3 s2)”, for which the target mRNA inhibition reads like this: (A431, 0.12 µM) 0%; (A431, 0.6 µM) 0%; (A431, 3 µM) 7%; (A431, 15 µM) 21%; (HepG2, 0.222 µM) 16%; (HepG2, 0.667 µM) 34%. Also, the target mRNA inhibition runs as follows: (HepG2, 2 µM) 58%; (HepG2, 6 µM) 80%.
As to “TCCCCACACCTTCACT (sugars kekeddddddddekek, linkages s1 o3 s8 o1 s2)”, the target mRNA inhibition (A431, 0.12 µM) was 3%; the target mRNA inhibition (A431, 0.6 µM) was found to be 44%; the target mRNA inhibition (A431, 3 µM) came out at 2%; the target mRNA inhibition (A431, 15 µM) is 8%; the target mRNA inhibition (HepG2, 0.222 µM) was 19%; the target mRNA inhibition (HepG2, 0.667 µM) came to 9%. This sequence also came in with a target mRNA inhibition (HepG2, 2 µM) of 31% and a target mRNA inhibition (HepG2, 6 µM) of 61%.
Consider “TCCTGGTTCCGAGGACTGCA (sugars e5 d10 e5, PS)”, for which the target mRNA inhibition (HepG2, 4 µM) amounted to 24%.
On to “TCGCCCTTCAGCACGCA (sugars e2 k2 d8 k2 e3, PS)”, for which the target mRNA inhibition was 56% and 55% (HepG2, 4 µM); 53% and 64% (HepG2, 5 µM); 71% (HepG2, 12 µM).
On to “TCGGCCACACCATCTTTGTC (sugars e5 d10 e5, PS)”, for which the target mRNA inhibition (HepG2, 5 µM) was 32% and 28%.
Take “TCTGAAAAAGTCACACAATT (sugars e5 d10 e5, PS)”: the target mRNA inhibition (HepG2, 5 µM) amounted to 5%.
Where the note is “HepG2, 4 µM”, “TCTGCTCGAAATTGATGATG (sugars e5 d10 e5, PS)” registered a target mRNA inhibition of 14%.
On to “TCTGGCAAAATACAGGT (sugars e3 k2 d7 k2 e3, PS)”, for which the target mRNA inhibition (HepG2, 3 µM) turned out to be 0%.
Under “HepG2, 5 µM”, “TCTGTGATTTAAGTCTG (sugars e2 k2 d8 k2 e3, PS)” had a target mRNA inhibition of 49%.
For the setting “HepG2, 5 µM”, “TGAAAAAGTCACACAATTAC (sugars e5 d10 e5, PS)” displayed a target mRNA inhibition of 0%.
Same read-out and setting: to “TGAGAGTGAGATCACAGAAT (sugars e5 d10 e5, PS)” belongs 18%; to “TGATTTAAGTCTGGCAA (sugars e2 k2 d9 k2 e2, PS)”, 52%.
For the sequence “TGCTCGAAATTGATGATGCC (sugars e5 d10 e5, PS)”, the target mRNA inhibition (HepG2, 4 µM) was 20%.
